Earlier results, collected in patent US7618965B2, “(Arylamidoanilino)nitroethylene compounds” (OSI Pharmaceuticals, Inc., priority 2004, dated 2009).
Where a name gives a salt, the structure may show the parent alone.

Columns and labels:
[1] = tested on: MO7e human leukemia cells
[2] = tested on: MO7e human leukemia cells; remark: listed apart in the source

Cc1ccc(NC(=O)c2ccc(CN3CCN(C)CC3)cc2)cc1Nc1nccc(-c2cccnc2)n1 [Gleevec, imatinib mesylate]
GM-CSF stimulated growth of MO7e cells [1]: not affected | Kit ligand-stimulated growth of MO7e cells [2]: inhibited
